Assay results from US20160207970A1, “POLYPEPTIDE FOR THE PROTECTION AGAINST HEART ISCHEMIA-REPERFUSION INJURY” (Pharis Biotech GmbH, priority 2011, published 2016).
“Also recorded” adds a separate entry of the source. Where two headings read alike, the source gives them in different places. Where no end group is shown, it is not given here.

Assays:
in vitro rat heart = details: cited from earlier work
[1] = tested on: isolated, retrogradely perfused rat hearts; assay: Global ischemia (35 min)-reperfusion (120 min) in isolated, retrogradely perfused (Langendorff) rat hearts; peptide postconditioning; details: for LVD AUC / LVD-lowering effect in the presence of exendin(9-39): N-Ac-GLP-1(7-34)amide 0.3 nM + exendin(9-39) 3 nM versus control ischemia; for Infarct size (% IS/AAR): 15 min at onset of reperfusion; for Left ventricle developed pressure (LVDEV) AUC / Rate-pressure product (RPP) AUC / Left ventricle diastolic pressure (LVD) AUC over last 60 min of reperfusion / post-ischemic diastolic contracture: postconditioning 0.3 nM versus control ischemia
Description: Global ischemia (35 min)-reperfusion (120 min) was applied in isolated, retrogradely perfused rat hearts. Peptides were present for 15 min at the onset of reperfusion. Cardiac function parameters (beats per minute, left ventricle developed and diastolic pressures, rate-pressure product) throughout the course of the perfusion were measured. Infarct size was determined on collected hearts by 2,3,5-tripehyltetrazolium chloride staining and planimetry.
(§1) For anesthesia, a mixture of midazolam (2.5 mg/kg), fluanisone (2.5 mg/kg) and fentanyl citrate (0.08 mg/kg) was administered subcutaneously. Heparin ([…]. per kg) was administered through the femoral vein. The animals were ventilated via a tracheotomy with a mixture of 35% O2/65% N2 and the chest cavity was opened. The excised heart was immediately placed in an ice-cold Krebs Henseleit buffer. The heart was quickly mounted onto the Langendorff perfusion system (ADInstruments, UK) and perfused with modified Krebs-Henseleit solution (NaCl 118.5 mM, KCl 4.7 mM, NaHCO3 25.0 mM, MgSO4 1.2 mM, CaCl2 1.4 mM, glucose 11.1 mM), equilibrated to pH 7.4 with a gas mixture of 5% CO2/95% 02, at 37° C. The left auricle was removed and a size 7 balloon (ADInstruments) was inserted into the left ventricle through the left atrium and adjusted to a diastolic pressure of 4-10 mmHg. Perfusion pressure was set to 70 mm Hg and maintained at this average value by a servo control system (ML175 STH Pump Controller, ADInstruments) continually adjusting the peristaltic pump revolutions according to flow resistance. The hearts were allowed to stabilize for 20 min prior to recording of left ventricle functional parameter baseline values over the next 10 min: pressure (systolic, LVS; diastolic, LVD; developed, LVDEV=LVS-LVD), beats per minute (BPM) and rate-pressure product (RPP). Power Lab 8/30 system and Chart 5 Pro Software from ADInstruments were used for these recordings.
(§2) Hearts were also excluded if ventricular fibrillation lasting more than 5 min occurred during reperfusion.
FIG. 1 outlines the time course for normoxic (A) and ischemia-reperfusion (B) experiments. The experimental groups were: control normoxia, no peptide addition; normoxia, N—Ac-GLP-1(7-34)amide 0.3 nM; control ischemia-reperfusion (IR), no peptide addition; IR, N—Ac-GLP-1(7-34)amide 0.3 nM; IR, N—Ac-GLP-1(7-34)amide 0.3 nM+exendin(9-39) 3 nM; IR, exendin(9-39) 3 nM. […] “Stab” indicates 30 min stabilization period. When present, peptides were added for 15 min, from the beginning of the last 120 min of perfusion (A) or reperfusion (B). Total perfusion time was always 185 min, consisting of 30 min stabilization, followed by 155 min of normoxic perfusion (FIG. 1A) or 35 min global ischemia-120 min reperfusion (FIG. 1B).
Following reperfusion, the hearts were processed for 2, 3, 5-triphenyltetrazolium chloride staining and planimetric infarct size determination, as described earlier. Quantitation was done by an investigator blinded to the experimental conditions. Infarct size (IS) was expressed as a percentage of total ischemic area at risk (AAR) (% IS/AAR).
All values are presented as means, with SEM given in parantheses. One-way ANOVA with Dunnett's post hoc test (GraphPad Prism® 5) was used to compare treatment results to control conditions. P<0.05 was considered significant.

[2] = tested on: isolated, retrogradely perfused rat hearts; assay: Normoxic perfusion of isolated rat hearts (no preceding ischemia); details: 0.3 nM between 35 and 50 min of perfusion
Description: as §1, §2
FIG. 1 outlines the time course for normoxic (A) and ischemia-reperfusion (B) experiments. The experimental groups were: control normoxia, no peptide addition; normoxia, N—Ac-GLP-1(7-34)amide 0.3 nM; control ischemia-reperfusion (IR), no peptide addition; IR, N—Ac-GLP-1(7-34)amide 0.3 nM; IR, N—Ac-GLP-1(7-34)amide 0.3 nM+exendin(9-39) 3 nM; IR, exendin(9-39) 3 nM. […] “Stab” indicates 30 min stabilization period. […]

[3] = listed as N—Ac-GLP-1-(7-34)amide
[4] = listed as N—Ac-GLP-1(7-34)-amide

Question: What does the source list for “GLP-1 (HAEGTFTSDVSSYLEGQAAKEFIAWLVKGR; ends and bridges not checked; UniProt P01275 98-127, looked up) [natural hormone GLP-1]”?
Answer: Effect on myocardial infarction (in vitro rat heart; GLP-1 alone): did not decrease; Effect on myocardial infarction (in vitro rat heart; GLP-1 in combination with the GLP-1 breakdown inhibitor valine pyrrolidide (VP)): significant reduction

Question: For “N—Ac-GLP-1(7-34)amide (Ac-HAEGTFTSDVSSYLEGQAAKEFIAWLVK-NH2) [N-terminally acetylated, C-terminally truncated analogue of GLP-1]”, which “Trend towards LVDEV improvement in the presence of exendin(9-39)” value ([1]; N-Ac-GLP-1(7-34)amide 0.3 nM + exendin(9-39) 3 nM) is on record?
Answer: Its value is “abolished”.

Question: And the “LVD AUC / LVD-lowering effect in the presence of exendin(9-39)” value [1]?
Answer: Its value is “blocked”.

Question: What about the “LVD AUC / LVD-lowering effect in the presence of exendin(9-39)” value [1, 3] of the same substance?
Answer: Its value is “not affected”.

Question: What about the “Infarct size (% IS/AAR)” value ([1]; N-Ac-GLP-1(7-34)amide 0.3 nM in the presence of exendin(9-39) 3 nM, mean) of the same substance?
Answer: The value was 21.4%.

Question: And the “Infarct size-limiting action in the presence of GLP-1 receptor antagonist exendin(9-39)” value ([1]; co-administration of exendin(9-39) 3 nM)?
Answer: Its value is “abolished”.

Question: And the “Infarct size (IS) as percentage of area at risk (% IS/AAR)” value ([1]; peptide 0.3 nM for 15 min at onset of reperfusion, mean, control ischemia-reperfusion without peptide 24.8% / 28.4%)?
Answer: Its value is 11.4%.

Question: What about the “Left ventricle developed pressure (LVDEV) AUC” value [1] of the same substance?
Answer: Its value is “did not affect”.

Question: What about the “Rate-pressure product (RPP) AUC” value [1] of the same substance?
Answer: Its value is “did not affect”.

Question: And the “Left ventricle diastolic pressure (LVD) AUC over last 60 min of reperfusion / post-ischemic diastolic contracture” value ([1]; P<0.05)?
Answer: Its value is “diminished diastolic hypercontracture; also recorded: significant decrease”.

Question: And the “Left ventricle diastolic pressure (LVD) AUC over last 60 min of reperfusion / post-ischemic diastolic contracture” value ([1]; P<0.05, listed as N—Ac-GLP-1(7-34)-amide)?
Answer: The value was “diminished significantly”.

Question: What about the “Left ventricle diastolic pressure (LVD) AUC over last 60 min of reperfusion / post-ischemic diastolic contracture” value ([1]; P<0.05, listed as N—Ac-GLP-1-(7-34)amide) of the same substance?
Answer: Its value is “significantly decreased”.

Question: What about the “Relative decrease in infarct size” value ([1]; postconditioning 0.3 nM versus control ischemia-reperfusion) of the same substance?
Answer: Its value is “approximately 54%”.

Question: And the “Left ventricle developed pressure (LVDEV) AUC” value [1, 4]?
Answer: The value was “no significant effect”.

Question: What about the “Rate-pressure product (RPP) AUC” value [1, 4] of the same substance?
Answer: Its value is “no significant effect”.

Question: And the “Left ventricle developed pressure (LVDEV) AUC” value [1, 3]?
Answer: Its value is “did not increase”.

Question: And the “Rate-pressure product (RPP) AUC” value [1, 3]?
Answer: The value was “did not increase”.

Question: And the “Effect on infarct size (in words)” value ([1]; postconditioning 0.3 nM versus no peptide, P<0.05)?
Answer: The value was “diminished infarct size; also recorded: significant decrease”.

Question: And the “Functional heart parameters (BPM, LVDEV, LVD, RPP) under normoxic perfusion” value (shortened to “Functional heart parameters”) [2]?
Answer: The value was “not affected”.

Question: And the “Functional heart parameters” value [2, 4]?
Answer: The value was “nor did it affect”.

Question: What about the “Functional heart parameters” value [2, 3] of the same substance?
Answer: The value was “No effect”.

Question: Which results are given for exendin(9-39) [reference compound]?
Answer: LVD AUC over last 60 min of reperfusion ([1]; exendin(9-39) 3 nM alone versus control ischemia): not affected; Infarct size (% IS/AAR) ([1]; exendin(9-39) 3 nM alone, mean): 21.7%; Effect on infarct-limiting actions of GLP-1 (in vitro rat heart; exendin(9-39) given with GLP-1): abolish
